Experimental data: the supplement of paper PMC10307832

Experiments:
Experiment in all cases: relative viability (nuclei count vs DMSO), 5 days (fraction); higher = more cells survive
[1] = compound: CN1CCN(c2ccc3nc(-c4c(N)c5c(F)cccc5[nH]c4=O)[nH]c3c2)CC1 [Dovitinib] + COc1cc2c(Oc3ccc(NC(=O)C4(C(=O)Nc5ccc(F)cc5)CC4)cc3F)ccnc2cc1OCCCN1CCOCC1 [Foretinib] (partner 0.25 µM)
Method in brief: (§1)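 Five library-drug doses in √10 steps were combined with a fixed anchor-drug dose, or a single drug was given alone, by pin tool to lung cancer cell lines in 1536-well plates the day after seeding. Nuclei were stained and counted after 5 days. Relative viability is the nuclei count in treated wells over that in vehicle wells, taken as the median of duplicate plates.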

[2] = compound: CN1CCN(c2ccc3nc(-c4c(N)c5c(F)cccc5[nH]c4=O)[nH]c3c2)CC1 [Dovitinib] + Nc1ncn([C@H]2C[C@H](O)[C@@H](CO)O2)c(=O)n1 [Decitabine] (partner 2 µM)
Method in brief: as §1

[3] = compound: CN1CCN(c2ccc3nc(-c4c(N)c5c(F)cccc5[nH]c4=O)[nH]c3c2)CC1 [Dovitinib] + CCNC(=O)c1noc(-c2cc(C(C)C)c(O)cc2O)c1-c1ccc(CN2CCOCC2)cc1 [Luminespib] (partner 0.01 µM)
Method in brief: as §1

[4] = compound: CN1CCN(c2ccc3nc(-c4c(N)c5c(F)cccc5[nH]c4=O)[nH]c3c2)CC1 [Dovitinib] + Cc1nc(Nc2ncc(C(=O)Nc3c(C)cccc3Cl)s2)cc(N2CCN(CCO)CC2)n1 [Dasatinib] (partner 0.075 µM)
Method in brief: as §1

| Cell Line | relative viability ([1]; first compound 0.02 µM) | relative viability ([1]; first compound 0.06325 µM) | relative viability ([1]; first compound 0.2 µM) | relative viability ([1]; first compound 0.6325 µM) | relative viability ([1]; first compound 2 µM) | relative viability ([2]; first compound 0.02 µM) | relative viability ([2]; first compound 0.06325 µM) | relative viability ([2]; first compound 0.2 µM) | relative viability ([2]; first compound 0.6325 µM) | relative viability ([2]; first compound 2 µM) | relative viability ([3]; first compound 0.02 µM) | relative viability ([3]; first compound 0.06325 µM) | relative viability ([3]; first compound 0.2 µM) | relative viability ([3]; first compound 0.6325 µM) | relative viability ([3]; first compound 2 µM) | relative viability ([4]; first compound 0.02 µM) | relative viability ([4]; first compound 0.06325 µM) | relative viability ([4]; first compound 0.2 µM) | relative viability ([4]; first compound 0.6325 µM) | relative viability ([4]; first compound 2 µM) |
| --- | --- | --- | --- | --- | --- | --- | --- | --- | --- | --- | --- | --- | --- | --- | --- | --- | --- | --- | --- | --- |
| 201T | 0.946 | 1.01 | 1.07 | 1.09 | 1.06 | 0.817 | 0.857 | 0.839 | 0.844 | 0.871 | 0.924 | 1.04 | 1.02 | 1.09 | 1.01 | 0.571 | 0.565 | 0.581 | 0.566 | 0.538 |
| A549 | 0.943 | 0.919 | 0.954 | 0.985 | 0.975 | 0.225 | 0.329 | 0.248 | 0.292 | 0.237 | – | – | – | – | – | – | – | – | – | – |
| A-427 | 1.17 | 0.996 | 1.02 | 1.07 | 0.956 | 0.569 | 0.512 | 0.695 | 0.581 | 0.59 | 0.843 | 1.02 | 1.14 | 0.897 | 0.747 | 0.624 | 0.654 | 0.673 | 0.634 | 0.698 |
| ABC-1 | 0.899 | 1.05 | 1.2 | 1.11 | 1.42 | 1.08 | 0.991 | 1.03 | 0.891 | 1.14 | – | 0.522 | 0.326 | 0.783 | 0.659 | 0.479 | 0.55 | 0.474 | 0.618 | 0.61 |
| BEN | 0.52 | 0.566 | 0.68 | 0.698 | 0.614 | 0.754 | 0.599 | 0.683 | 0.783 | 0.71 | 0.258 | 0.458 | 0.432 | 0.512 | 0.203 | 0.32 | 0.272 | 0.321 | 0.326 | 0.307 |
| CAL-12T | 0.986 | 1.12 | 1.07 | 1.1 | 1.12 | – | – | – | – | – | 0.297 | 0.469 | 0.495 | 0.519 | 0.219 | 0.43 | 0.486 | 0.465 | 0.49 | 0.457 |
| COR-L23 | 0.93 | 1 | 0.99 | 0.952 | 1.04 | 0.439 | 0.43 | 0.438 | 0.501 | 0.484 | 0.581 | 0.788 | 0.695 | 0.664 | 0.72 | 0.482 | 0.565 | 0.512 | 0.534 | 0.567 |
| COR-L 105 | 0.921 | 0.993 | 1.2 | 1.14 | 1.31 | 0.596 | 0.622 | 0.619 | 0.657 | 0.646 | 0.77 | 0.84 | 0.78 | 0.82 | 0.81 | 0.34 | 0.34 | 0.332 | 0.439 | 0.393 |
| Calu-6 | 0.925 | 0.861 | 0.853 | 0.874 | 0.912 | – | – | – | – | – | – | – | – | – | – | – | – | – | – | – |
| ChaGo-K-1 | 0.848 | 0.888 | 0.906 | 0.892 | 0.909 | 0.528 | 0.517 | 0.498 | 0.514 | 0.487 | 0.631 | 0.627 | 0.567 | 0.609 | 0.628 | 0.632 | 0.559 | 0.603 | 0.595 | 0.526 |
| EBC-1 | 0.105 | 0.0996 | 0.103 | 0.0933 | 0.115 | – | – | – | – | – | – | – | – | – | – | – | – | – | – | – |
| EKVX | 0.633 | 0.721 | 0.64 | 0.757 | 0.808 | 0.388 | 0.399 | 0.348 | 0.339 | 0.286 | 0.914 | 0.901 | 0.882 | 0.89 | 0.866 | 0.517 | 0.662 | 0.588 | 0.61 | 0.611 |
| EMC-BAC-2 | 1 | 0.982 | 0.991 | 0.948 | 0.599 | 1.1 | 0.958 | 1.06 | 1 | 1.01 | 1.19 | 1.13 | 1.16 | 1.05 | 0.986 | 0.362 | 0.284 | 0.341 | 0.299 | 0.202 |
| EPLC-272H | 0.634 | 0.841 | 0.732 | 0.747 | 0.687 | 0.403 | 0.333 | 0.336 | 0.372 | 0.374 | 0.235 | 0.241 | 0.386 | 0.364 | 0.236 | 0.351 | 0.346 | 0.36 | 0.37 | 0.31 |
| H3255 | 0.877 | 0.864 | 0.904 | 0.982 | 0.966 | 0.609 | 0.642 | 0.603 | 0.636 | 0.614 | 0.943 | 0.9 | 0.956 | 0.932 | 0.923 | 0.405 | 0.374 | 0.424 | 0.445 | 0.369 |
| HARA | 0.969 | 0.765 | 0.846 | 0.873 | 0.905 | 0.733 | 0.618 | 0.508 | 0.57 | 0.465 | 0.708 | 0.682 | 0.595 | 0.603 | 0.763 | 0.319 | 0.152 | 0.275 | 0.226 | 0.291 |
| HCC-15 | 1.03 | 0.971 | 1 | 1.06 | 1.03 | 0.684 | 0.746 | 0.686 | 0.676 | 0.619 | 0.233 | 0.237 | 0.238 | 0.297 | 0.303 | 0.673 | 0.548 | 0.664 | 0.59 | 0.561 |
| HCC-44 | – | – | – | – | – | 0.926 | 0.936 | 0.97 | 0.962 | 0.92 | 0.981 | 0.976 | 1.12 | 1.11 | 1.02 | – | – | – | – | – |
| HCC-78 | 0.632 | 0.528 | 0.535 | 0.599 | 0.623 | 0.741 | 0.659 | 0.686 | 0.655 | 0.631 | – | – | – | – | – | 0.426 | 0.328 | 0.392 | 0.453 | 0.357 |
